A value given as a limit tells only on which side of the number the result lay.

The values below come from patent publication EP4759814A1, “TRICYCLIC COMPOUND AND USE THEREOF AS MAT2A INHIBITOR” (SK Biopharmaceuticals Co., Ltd., priority 2023, dated 2025).

The conditions of data set [1]: Phase 1 clinical trials; cited from earlier work.
The target in the next data set is T1, MAT2A (Homo sapiens, UniProt P31153).
T1 construct: purchased BPS Bioscience (USA) 71401
Put plainly: MAT2A inhibitory activity, colorimetric phosphate detection (PiColorLock) enzyme assay. It is filed as biochemical. To be noted: Test Condition 1 or 2 (not stated which per compound); absorbance at 630 nm. Summed up:
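Compound preincubated 30 min at room temperature with enzyme, then reacted 1 h with ATP and Met; phosphate read colorimetrically at 630 nm. Condition 1: top 50 µM, 12 ng/µL enzyme, 100 µM ATP, 80 µM Met. Condition 2: top 1 µM, 4 ng/µL enzyme, 300 µM ATP, 150 µM Met. Tris pH 8.0 buffer; IC50 by 4-parameter fit.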

The subject of data set [2] is HCT116 (MTAP del) cell line. Put plainly: Cell proliferation inhibition in MTAP-deficient cancer cells, WST-1 assay. The settings on record: Homo sapiens, HCT-116, 120 hours of drug treatment, maximum concentration 10 µM, read-out: HCT116 MTAP^-/- (IC50, cell proliferation inhibited by 50%). The format is cell-based. Summed up: (§1)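 HCT116 MTAP-deleted and isogenic MTAP wild-type cells (1,000 cells/well, 10% FBS RPMI1640) attached 24 h, then treated with 4-fold dilutions from 10 µM for 120 hours. WST-1 added 2 hours, absorbance at 450 nm, normalized to DMSO control as 100%; IC50 from 4-parameter dose-response fit.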

The subject of data set [3] is HCT116 (MTAP WT) cell line. Put plainly: Cell proliferation inhibition in wild-type control cells, WST-1 assay. It is filed as cell-based. To be noted: Homo sapiens, HCT-116, 120 hours of drug treatment, maximum concentration 10 µM, read-out: HCT116 WT (IC50, cell proliferation inhibited by 50%). Summed up: as §1
On the technique in general: Formazan colour is commonly taken as a measure of viable cells.

T1 sequence (P31153 whole entry): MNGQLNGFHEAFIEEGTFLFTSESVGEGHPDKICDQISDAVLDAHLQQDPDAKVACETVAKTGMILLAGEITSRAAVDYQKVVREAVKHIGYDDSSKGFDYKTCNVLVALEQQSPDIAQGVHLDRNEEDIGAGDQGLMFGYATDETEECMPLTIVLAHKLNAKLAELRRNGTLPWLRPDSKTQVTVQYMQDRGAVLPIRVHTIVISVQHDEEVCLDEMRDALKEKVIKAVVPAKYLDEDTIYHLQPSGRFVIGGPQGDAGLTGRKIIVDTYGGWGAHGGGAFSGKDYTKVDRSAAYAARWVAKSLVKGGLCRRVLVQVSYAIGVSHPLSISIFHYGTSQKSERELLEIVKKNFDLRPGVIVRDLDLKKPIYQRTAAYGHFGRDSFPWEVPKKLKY

Regarding `COc1ccc(-c2c(Nc3ccccn3)[nH]c3c(C4=CCCCC4)c(-c4ccccc4)nn3c2=O)cc1` [AG-270], in data set [1], the hepatotoxicity result is reported as “hepatotoxicity associated with inhibition of UGT1A1”.

`COc1cc2c(cc1Br)n(-c1ccccc1C)c(=O)c1nccn12` [Example 74, 7-bromo-8-methoxy-5-(o-tolyl)imidazo[1,2-a]quinoxalin-4(5H)-one]: the results for the IC50 (on MAT2A; in data set [2]; in data set [3]) were 0.1 to 1 µM, 0.1 to 1 µM and greater than 10 µM, respectively.

For `COc1cc2c(cc1Br)n(-c1cccnc1C)c(=O)c1nccn12` [Example 75, 7-bromo-8-methoxy-5-(2-methylpyridin-3-yl)imidazo[1,2-a]quinoxalin-4(5H)-one], the results for the IC50 (on MAT2A; in data set [2]; in data set [3]) were 0.1 to 1 µM, 0.1 to 1 µM and greater than 10 µM, respectively.

Take `Cc1ncccc1-n1c(=O)c2nccn2c2cc(F)c(Br)cc21` [Example 77, 7-bromo-8-fluoro-5-(2-methylpyridin-3-yl)imidazo[1,2-a]quinoxalin-4(5H)-one]: the IC50 was 0.001 to 0.1 µM against MAT2A, 0.001 to 0.1 µM in data set [2] and 1 to 10 µM in data set [3].

For the compound `Cc1cc2c(cc1Br)n(-c1cccnc1C)c(=O)c1nccn12` [Example 78, 7-bromo-8-methyl-5-(2-methylpyridin-3-yl)imidazo[1,2-a]quinoxalin-4(5H)-one], the IC50 at MAT2A was 0.001 to 0.1 µM; in data set [2] it was 0.001 to 0.1 µM; in data set [3], greater than 10 µM.

Regarding `Cc1ncccc1-n1c(=O)c2nccn2c2cc(Cl)c(Br)cc21` [Example 79, 7-bromo-8-chloro-5-(2-methylpyridin-3-yl)imidazo[1,2-a]quinoxalin-4(5H)-one], the IC50 is 0.001 to 0.1 µM at MAT2A, 0.001 to 0.1 µM in data set [2] and 1 to 10 µM in data set [3].

On to `Cc1cc2c(cc1Br)n(-c1cccnc1C)c(=O)c1ncc(C)n12` [Example 84, 7-bromo-1,8-dimethyl-5-(2-methylpyridin-3-yl)imidazo[1,2-a]quinoxalin-4(5H)-one], for which the IC50 against MAT2A was 0.1 to 1 µM; in data set [2] it was 0.001 to 0.1 µM; in data set [3], greater than 10 µM.

Consider `Cc1ncccc1-n1c(=O)c2ncc(C)n2c2c(Br)c(C)c(Br)cc21` [Example 85, 7,9-dibromo-1,8-dimethyl-5-(2-methylpyridin-3-yl)imidazo[1,2-a]quinoxalin-4(5H)-one], for which the IC50 is 0.1 to 1 µM against MAT2A, 0.001 to 0.1 µM in data set [2] and greater than 10 µM in data set [3].

In the case of `Cc1ncccc1-n1c(=O)c2ncc(C)n2c2cc(Cl)c(Br)cc21` [Example 86, 7-bromo-8-chloro-1-methyl-5-(2-methylpyridin-3-yl)imidazo[1,2-a]quinoxalin-4(5H)-one], the IC50 is 0.1 to 1 µM at MAT2A, 0.1 to 1 µM in data set [2] and greater than 10 µM in data set [3].

For `O=c1c2nccn2c2cc(Cl)c(Br)cc2n1-c1cccnc1C1CC1` [Example 87, 7-bromo-8-chloro-5-(2-cyclopropylpyridin-3-yl)imidazo[1,2-a]quinoxalin-4(5H)-one], the IC50 was 0.001 to 0.1 µM at MAT2A, 0.001 to 0.1 µM in data set [2] and greater than 10 µM in data set [3].

Consider `Cc1ncccc1-n1c(=O)c2ncc(Br)n2c2cc(Cl)c(Br)cc21` [Example 88, 1,7-dibromo-8-chloro-5-(2-methylpyridin-3-yl)imidazo[1,2-a]quinoxalin-4(5H)-one], for which the IC50 at MAT2A was 0.1 to 1 µM; in data set [2], 0.1 to 1 µM; in data set [3] it was greater than 10 µM.

For the compound `Cc1ncccc1-n1c(=O)c2ncc(Cl)n2c2cc(Cl)c(Br)cc21` [Example 89, 7-bromo-1,8-dichloro-5-(2-methylpyridin-3-yl)imidazo[1,2-a]quinoxalin-4(5H)-one], the IC50 is 0.1 to 1 µM on MAT2A, 0.1 to 1 µM in data set [2] and greater than 10 µM in data set [3].

As for `Cc1cc2c(cc1Br)n(-c1cccnc1Cl)c(=O)c1nccn12` [Example 91, 7-bromo-5-(2-chloropyridin-3-yl)-8-methylimidazo[1,2-a]quinoxalin-4(5H)-one], the IC50 on MAT2A was 0.001 to 0.1 µM; in data set [2], 0.001 to 0.1 µM; in data set [3] it was greater than 10 µM.

As for `Cc1ncccc1-n1c(=O)c2nc(Br)c(C)n2c2cc(Cl)c(Br)cc21` [Example 92, 2,7-dibromo-8-chloro-1-methyl-5-(2-methylpyridin-3-yl)imidazo[1,2-a]quinoxalin-4(5H)-one], the IC50 is 0.1 to 1 µM at MAT2A, greater than 10 µM in data set [2] and greater than 10 µM in data set [3].

`Cc1cc2c(cc1C(F)(F)F)n(-c1cccnc1C)c(=O)c1nccn12` [Example 93, 8-methyl-5-(2-methylpyridin-3-yl)-7-(trifluoromethyl)imidazo[1,2-a]quinoxalin4(5H)-one]: the IC50 on MAT2A was 0.001 to 0.1 µM; in data set [2], 0.001 to 0.1 µM; in data set [3], greater than 10 µM.

With `Cc1ncccc1-n1c(=O)c2nccn2c2cc(Cl)c(C(F)(F)F)cc21` [Example 96, 8-chloro-5-(2-methylpyridin-3-yl)-7-(trifluoromethyl)imidazo[1,2-a]quinoxalin4(5H)-one], the IC50 at MAT2A is 0.001 to 0.1 µM; in data set [2], 0.001 to 0.1 µM; in data set [3], greater than 10 µM.

`Cc1ncccc1-n1c(=O)c2ncc(C)n2c2cc(Cl)c(C(F)(F)F)cc21` [Example 99, 8-chloro-1-methyl-5-(2-methylpyridin-3-yl)-7-(trifluoromethyl)imidazo[1,2-a]quinoxalin-4(5H)-one]: the IC50 was 0.001 to 0.1 µM against MAT2A, 0.001 to 0.1 µM in data set [2] and greater than 10 µM in data set [3].

As to `Cc1ncccc1-n1c(=O)c2nc(N(C)C)c(C)n2c2cc(Cl)c(C(F)(F)F)cc21` [Example 100, 8-chloro-2-(dimethylamino)-1-methyl-5-(2-methylpyridin-3-yl)-7-(trifluoromethyl)imidazo[1,2-a]quinoxalin-4(5H)-one], the IC50 on MAT2A was 0.1 to 1 µM; in data set [2], 0.1 to 1 µM; in data set [3], greater than 10 µM.

For the compound `Cc1ncccc1-n1c(=O)c2nccn2c2c(F)cc(Cl)cc21` [Example 101, 7-chloro-9-fluoro-5-(2-methylpyridin-3-yl)imidazo[1,2-a]quinoxalin-4(5H)-one], the IC50 against MAT2A was 0.001 to 0.1 µM; in data set [2], 0.001 to 0.1 µM; in data set [3], greater than 10 µM.

In the case of `COc1cc(Cl)cc2c1n1ccnc1c(=O)n2-c1cccnc1C` [Example 102, 7-chloro-9-methoxy-5-(2-methylpyridin-3-yl)imidazo[1,2-a]quinoxalin-4(5H)-one], the IC50 against MAT2A was 0.001 to 0.1 µM; in data set [2], 0.001 to 0.1 µM; in data set [3], greater than 10 µM.

With `Cc1ncccc1-n1c(=O)c2nccn2c2c(OCC3CC3)cc(Cl)cc21` [Example 103, 7-chloro-9-(cyclopropylmethoxy)-5-(2-methylpyridin-3-yl)imidazo[1,2-a]quinoxalin-4(5H)-one], the IC50 on MAT2A is 0.001 to 0.1 µM; in data set [2], 0.001 to 0.1 µM; in data set [3] it was greater than 10 µM.

Take `CNc1cc(Cl)cc2c1n1ccnc1c(=O)n2-c1cccnc1C` [Example 105, 7-chloro-9-(methylamino)-5-(2-methylpyridin-3-yl)imidazo[1,2-a]quinoxalin-4(5H)-one]: the IC50 at MAT2A is 0.001 to 0.1 µM; in data set [2] it was 0.001 to 0.1 µM; in data set [3], greater than 10 µM.

As to `COc1ncccc1-n1c(=O)c2nccn2c2cc(Cl)c(Br)cc21` [Example 107, 7-bromo-8-chloro-5-(2-methoxypyridin-3-yl)imidazo[1,2-a]quinoxalin-4(5H)-one], the IC50 on MAT2A was 0.001 to 0.1 µM; in data set [2], greater than 10 µM; in data set [3] it was greater than 10 µM.

Turning to `O=c1c2nccn2c2cc(Cl)c(Br)cc2n1-c1cccc2ncsc12` [Example 108, 5-(benzo[d]thiazol-7-yl)-7-bromo-8-chloroimidazo[1,2-a]quinoxalin-4(5H)-one], the IC50 on MAT2A lay within 0.001 to 0.1 µM; in data set [2] it was 0.1 to 1 µM; in data set [3] it was 1 to 10 µM.

For the compound `O=c1c2nccn2c2cc(Cl)c(Br)cc2n1-c1cccc2[nH]ccc12` [Example 109, 7-bromo-8-chloro-5-(1H-indol-4-yl)imidazo[1,2-a]quinoxalin-4(5H)-one], the IC50 against MAT2A was 0.001 to 0.1 µM; in data set [2], 0.1 to 1 µM; in data set [3], greater than 10 µM.

As for `CCc1ncccc1-n1c(=O)c2nccn2c2cc(Cl)c(C(F)(F)F)cc21` [Example 110, 8-chloro-5-(2-ethylpyridin-3-yl)-7-(trifluoromethyl)imidazo[1,2-a]quinoxalin-4(5H)-one], the IC50 was 0.001 to 0.1 µM against MAT2A, greater than 10 µM in data set [2] and greater than 10 µM in data set [3].

As for `COc1cc(C(F)(F)F)cc2c1n1ccnc1c(=O)n2-c1cccnc1C` [Example 113, 9-methoxy-5-(2-methylpyridin-3-yl)-7-(trifluoromethyl)imidazo[1,2-a]quinoxalin-4(5H)-one], the values for the IC50 (at MAT2A; in data set [2]; in data set [3]) were 0.001 to 0.1 µM, 0.001 to 0.1 µM and greater than 10 µM, respectively.
